# Literature values, collected in US20030099724A1, “Compounds for prevention of diabetic retinopathy” (priority 2001, published 2003).
# How the values were obtained:
# diabetic retinopathy = details: rat models
solubility in alcohol (alcohol),solubility in water (water),SMILES,progression of diabetic retinopathy (diabetic retinopathy)
sparingly soluble,slightly soluble,"CCOC(=O)C1=C(COCCN)NC(C)=C(C(=O)OC)C1c1ccccc1Cl (stereo not drawn) [Amlodipine besylate, amlodipine besylate]",–
–,–,N=C(N)NN [amino guanidine],retards the progression of diabetic retinopathy
